Earlier results as cited in patent US5854247A, “Piperazine, piperidine and tetrahydropyridine derivatives useful as 5-HT1 recepter agonists” (Merck Sharp & Dohme Ltd., priority 1994, dated 1998).

Settings: humans, therapeutic doses

For `CNS(=O)(=O)Cc1ccc2[nH]cc(CCN(C)C)c2c1` [sumatriptan], the adverse cardiovascular events is listed as “certain adverse cardiovascular events”.
